Laboratory results taken from US20180256595A1, “AGENT FOR ENHANCING OCULAR HYPOTENSIVE EFFECT” (KOWA COMPANY, LTD., priority 2015, published 2018).

Experiment: Multi-center open-label study: continuous ocular instillation of 0.4% ripasudil ophthalmic solution twice daily for 52 weeks, change in intra-ocular pressure
Type: in vivo, patients
Procedure: A multi-center open-label study was performed using a cohort for a monotherapy of ripasudil ophthalmic solution (173 cases) and a cohort for an additive therapy of a ripasudil ophthalmic solution in combination with another agent (181 cases) (additive therapy to a PG related drug: 62 cases, additive therapy to a β blocker: 60 cases, additive therapy to a combination drug of said PG-related drug and said β blocker: 59 cases). Patients with primary open angle glaucoma, ocular hypertension, and exfoliation glaucoma (one type of secondary glaucoma to cause aqueous humor outflow resistance due to exfoliation substances in aqueous humor or the like) having a pre-treatment intra-ocular pressure of 15 mmHg or higher or a post-treatment intra-ocular pressure of 15 mmHg or higher at the time after treatment of a PG-related drug, a β-blocker, or a combination drug of the PG-related drug and β-blocker were enrolled. A 0.4% ripasudil ophthalmic solution was dropped into an eye twice daily for 52 weeks. In order to evaluate intra-ocular pressure-lowering effect over time caused by long-term ocular instillation, the amount of change in intra-ocular pressure (least mean square value) in a second half of ocular instillation (32 weeks to 52 weeks) with respect to a first half of ocular instillation (4 weeks to 28 weeks) was examined. Statistical analysis was performed using SAS (SAS Inc., Cary, N.C.) by a least squares method based on a mixed effect model.

[1] = 2 hours after ocular instillation, baseline intra-ocular pressure 15≤ to <18 mmHg
[2] = 2 hours after ocular instillation, baseline intra-ocular pressure 18≤ to <−21 mmHg
[3] = 2 hours after ocular instillation, baseline intra-ocular pressure 21≤ mmHg
[4] = 2 hours after ocular instillation, whole cohort, least mean square value ± SE
[5] = before ocular instillation (immediately before ocular instillation in the morning), whole cohort, least mean square value ± SE
[6] = before ocular instillation, baseline intra-ocular pressure 15≤ to <18 mmHg
[7] = before ocular instillation, baseline intra-ocular pressure 18≤ to <−21 mmHg
[8] = before ocular instillation, baseline intra-ocular pressure 21≤ mmHg

Structure (SMILES): C[C@H]1CNCCCN1S(=O)(=O)c1cccc2cncc(F)c12 [Ripasudil only, (S)-(−)-1-(4-fluoro-5-isoquinolinesulfonyl)-2-methyl-1,4-homopiperazine]
- Change from the baseline intra-ocular pressure First half (Week 4-28) [1]: −2.86 ± 0.24 mmHg
- Change from the baseline intra-ocular pressure Second half (Week 32-52) [1]: −3.35 ± 0.25 mmHg
- Difference (second half with respect to first half) [1]: −0.49 ± 0.12 mmHg
- Change from the baseline intra-ocular pressure First half (Week 4-28) [2]: −3.24 ± 0.22 mmHg
- Change from the baseline intra-ocular pressure Second half (Week 32-52) [2]: −3.71 ± 0.22 mmHg
- Difference (second half with respect to first half) [2]: −0.47 ± 0.11 mmHg
- Change from the baseline intra-ocular pressure First half (Week 4-28) [3]: −3.55 ± 0.40 mmHg
- Change from the baseline intra-ocular pressure Second half (Week 32-52) [3]: −4.39 ± 0.41 mmHg
- Difference (second half with respect to first half) [3]: −0.84 ± 0.17 mmHg
- Difference (second half with respect to first half) (2 hours after ocular instillation, whole cohort): −0.58 ± 0.08 mmHg
- Change from the baseline intra-ocular pressure First half (Week 4-28) [4]: −3.23 ± 0.17 mmHg
- Change from the baseline intra-ocular pressure Second half (Week 32-52) [4]: −3.81 ± 0.17 mmHg
- Change from the baseline intra-ocular pressure Second half (Week 32-52) (2 hours after ocular instillation, whole cohort, least mean square value ± SE, listed as ripasudil): −3.81 mmHg
- Difference (second half with respect to first half) (2 hours after ocular instillation, whole cohort, listed as ripasudil): −0.58 mmHg
- Difference (second half with respect to first half) (before ocular instillation (immediately before ocular instillation in the morning), whole cohort): −0.49 ± 0.07 mmHg
- Change from the baseline intra-ocular pressure First half (Week 4-28) [5]: −2.12 ± 0.15 mmHg
- Change from the baseline intra-ocular pressure Second half (Week 32-52) [5]: −2.61 ± 0.15 mmHg
- Change from the baseline intra-ocular pressure Second half (Week 32-52) (before ocular instillation (immediately before ocular instillation in the morning), whole cohort, least mean square value ± SE, listed as ripasudil): −2.61 mmHg
- Difference (second half with respect to first half) (before ocular instillation (immediately before ocular instillation in the morning), whole cohort, listed as ripasudil): −0.49 mmHg
- Change from the baseline intra-ocular pressure First half (Week 4-28) [6]: −1.30 ± 0.25 mmHg
- Change from the baseline intra-ocular pressure Second half (Week 32-52) [6]: −1.70 ± 0.26 mmHg
- Difference (second half with respect to first half) [6]: −0.40 ± 0.12 mmHg
- Change from the baseline intra-ocular pressure First half (Week 4-28) [7]: −2.38 ± 0.16 mmHg
- Change from the baseline intra-ocular pressure Second half (Week 32-52) [7]: −2.66 ± 0.17 mmHg
- Difference (second half with respect to first half) [7]: −0.28 ± 0.11 mmHg
- Change from the baseline intra-ocular pressure First half (Week 4-28) [8]: −2.52 ± 0.34 mmHg
- Change from the baseline intra-ocular pressure Second half (Week 32-52) [8]: −3.42 ± 0.35 mmHg
- Difference (second half with respect to first half) [8]: −0.91 ± 0.16 mmHg
- Difference (second half with respect to first half) (before ocular instillation, baseline intra-ocular pressure 21≤ mmHg, listed as ripasudil): −0.91 mmHg
- intra-ocular pressure-lowering effect on long-term continuous administration (in words) (long-term continuous ocular instillation): exhibited a further intra-ocular pressure-lowering effect by continuous ocular instillation
